Structures can show the parent of a compound that is named as a salt. Where two headings read alike, the source gives them in different places.
Key:
[1] = tested on: HL-60 (Acute Promyelocytic Leukemia); assay: Cell viability analysis, leukemia HL-60; assay type: cell-based, human; conditions: Homo sapiens, HL-60, 72 h, read-out: cell viability (survival rate), HL-60, drug 10 μM, 72 hours, WST-1, OD450 nm
[2] = tested on: A549 (Lung Adenocarcinoma); assay: Cell viability analysis, lung cancer A549; assay type: cell-based, human; conditions: Homo sapiens, A549, 72 h
[3] = tested on: Hep3B (hepatocellular carcinoma); assay: Cell viability analysis, hepatic cancer Hep3B; assay type: cell-based, human; conditions: Homo sapiens, Hep3B, 72 h, read-out: The results of antibiotic drug inhibiting cancer cell lines (cell viability analysis), Hep3B
[4] = tested on: HeLa (Cervix Adenocarcinoma); assay: Cell viability analysis, cervical cancer HeLa; assay type: cell-based, human; conditions: Homo sapiens, HeLa, 72 h
T24 = assay: Cell viability analysis, bladder cancer T24; assay type: cell-based, human; conditions: Homo sapiens, T-24, 72 h, read-out: The results of antibiotic drug inhibiting cancer cell lines (cell viability analysis), T24
[5] = tested on: MCF7 (Mammary Gland, Adenocarcinoma); assay: Cell viability analysis, breast cancer MCF7; assay type: cell-based, human; conditions: Homo sapiens, MCF7, 72 h
NIH: OVCAR-3 = assay: Cell viability analysis, ovarian cancer NIH: OVCAR-3; assay type: cell-based, human; conditions: Homo sapiens, OVCAR-3, 72 h, read-out: The results of antibiotic drug inhibiting cancer cell lines (cell viability analysis), NIH-OVCAR-3
U-2OS = assay: Cell viability analysis, osteosarcoma U-2OS; assay type: cell-based, human; conditions: Homo sapiens, U2OS, 72 h, read-out: The results of antibiotic drug inhibiting cancer cell lines (cell viability analysis), U2OS
[6] = tested on: HCT116 (p53+) (Colorectal Carcinoma)
[7] = tested on: 786-O (Renal adenocarcinoma); assay: Cell viability analysis, renal cancer 786-O; assay type: cell-based, human; conditions: Homo sapiens, 786-0, 72 h, read-out: The results of antibiotic drug inhibiting cancer cell lines (cell viability analysis), 786-O
AsPC-1 = assay: Cell viability analysis, pancreatic cancer AsPC-1; assay type: cell-based, human; conditions: Homo sapiens, ASPC1, 72 h, read-out: The results of antibiotic drug inhibiting cancer cell lines (cell viability analysis), AsPC-1
[8] = tested on: TSGH-8301 (Urinary Bladder Carcinoma); assay: Cell viability analysis, bladder cancer TSGH-8301; assay type: cell-based, human; conditions: Homo sapiens, 72 h
BxPC-3 = assay: Cell viability analysis, pancreatic cancer BxPC-3; assay type: cell-based, human; conditions: Homo sapiens, BXPC-3, 72 h, read-out: The results of antibiotic drug inhibiting cancer cell lines (cell viability analysis), BxPC-3
[9] = tested on: MDA-MB-231 (Mammary Gland, Adenocarcinoma); assay: Cell viability analysis, breast cancer MDA-MB-231; assay type: cell-based, human; conditions: Homo sapiens, MDA-MB-231, 72 h, read-out: The results of antibiotic drug inhibiting cancer cell lines (cell viability analysis), MDA-MB231
cancer cell lines = assay: Cell viability analysis (WST-1) on cancer cell lines; assay type: cell-based, human; conditions: drug 10 μM, 72 hours, WST-1; Table 3
[10] = tested on: AGS (Gastric Adenocarcinoma); assay: Cell viability analysis, gastric cancer AGS; assay type: cell-based, human; conditions: Homo sapiens, 72 h
[11] = tested on: PC3 (p53−) (Prostate Adenocarcinoma); assay: Cell viability analysis, prostate cancer PC3; assay type: cell-based, human; conditions: Homo sapiens, 72 h
TOV-21G = assay: Cell viability analysis, ovarian cancer TOV-21G; assay type: cell-based, human; conditions: Homo sapiens, TOV21G, 72 h, read-out: The results of antibiotic drug inhibiting cancer cell lines (cell viability analysis), TOV-21G
[12] = tested on: MKN-45 (Gastric Adenocarcinoma); assay: Cell viability analysis, gastric cancer MKN-45; assay type: cell-based, human; conditions: Homo sapiens, MKN-45, 72 h
[13] = tested on: LoVo (Colorectal Adenocarcinoma); assay: Cell viability analysis, colon cancer LoVo; assay type: cell-based, human; conditions: Homo sapiens, LoVo, 72 h
[14] = tested on: SAS (Tongue squamous cell carcinoma); assay: Cell viability analysis, tongue cancer SAS; assay type: cell-based, human; conditions: Homo sapiens, 72 h, read-out: The results of antibiotic drug inhibiting cancer cell lines (cell viability analysis), SAS
[15] = tested on: BCC (basal cell carcinoma); assay: Cell viability analysis, skin cancer BCC; assay type: cell-based, human; conditions: Homo sapiens, 72 h, read-out: The results of antibiotic drug inhibiting cancer cell lines (cell viability analysis), BCC
[16] = tested on: HI650 (Lung Adenocarcinoma); assay: Cell viability analysis, lung cancer HI650; assay type: cell-based, human; conditions: Homo sapiens, NCI-H1650, 72 h
[17] = tested on: A375 (Amelanotic Melanoma); assay: Cell viability analysis, skin cancer A375; assay type: cell-based, human; conditions: Homo sapiens, A-375, 72 h

For `CN(C)[C@@H]1C(O)=C(C(N)=O)C(=O)[C@@]2(O)C(O)=C3C(=O)c4c(O)ccc(Cl)c4[C@@](C)(O)[C@H]3C[C@@H]12` [Chlortetracycline HCl], which viability at 10 µM [1] is on record?
The viability at 10 µM was 83.9%.

What about the viability at 10 µM ([2]; read-out: The results of antibiotic drug inhibiting cancer cell lines (cell viability analysis), A549, A549, repeated experiment) of the same compound?
The viability at 10 µM was 99.3%.

And the viability at 10 µM ([2]; read-out: cell viability (survival rate), A549, drug 10 μM, 72 hours, WST-1, OD450 nm)?
Its viability at 10 µM is 45.8%.

What about the viability at 10 µM [3] of the same compound?
Its viability at 10 µM is 117%.

What about the viability at 10 µM ([4]; read-out: The results of antibiotic drug inhibiting cancer cell lines (cell viability analysis), HeLa, repeated experiment) of the same compound?
The viability at 10 µM was 84%.

What about the viability at 10 µM ([4]; read-out: cell viability (survival rate), HeLa, drug 10 μM, 72 hours, WST-1, OD450 nm) of the same compound?
Its viability at 10 µM is 83.9%.

What about the viability at 10 µM (T24) of the same compound?
The viability at 10 µM was 122%.

And the viability at 10 µM ([5]; read-out: The results of antibiotic drug inhibiting cancer cell lines (cell viability analysis), MCF-7, MCF-7, repeated experiment)?
Its viability at 10 µM is 93.4%.

What about the viability at 10 µM ([5]; read-out: cell viability (survival rate), MCF7, drug 10 μM, 72 hours, WST-1, OD450 nm) of the same compound?
The viability at 10 µM was 32.2%.

What about the viability at 10 µM (NIH: OVCAR-3) of the same compound?
Its viability at 10 µM is 99.3%.

And the viability at 10 µM (U-2OS)?
The viability at 10 µM was 80.3%.

What about the viability [6] of the same compound?
Its viability is 91.5%.

And the viability at 10 µM [7]?
Its viability at 10 µM is 91.4%.

And the viability at 10 µM (AsPC-1)?
Its viability at 10 µM is 82.1%.

And the viability at 10 µM ([8]; read-out: The results of antibiotic drug inhibiting cancer cell lines (cell viability analysis), TSGH-8301, TSGH-8301, repeated experiment)?
The viability at 10 µM was 152%.

And the viability at 10 µM ([8]; read-out: cell viability (survival rate), TSGH, drug 10 μM, 72 hours, WST-1, OD450 nm)?
Its viability at 10 µM is 50.4%.

And the viability at 10 µM (BxPC-3)?
Its viability at 10 µM is 63.7%.

What about the viability at 10 µM [9] of the same compound?
The viability at 10 µM was 83.2%.

And the “inhibition effect on different cancer cell lines” value (cancer cell lines)?
The value was “significant inhibition effect”.

What about the viability at 10 µM ([10]; read-out: The results of antibiotic drug inhibiting cancer cell lines (cell viability analysis), AGS, repeated experiment) of the same compound?
Its viability at 10 µM is 99.9%.

What about the viability at 10 µM ([10]; read-out: cell viability (survival rate), AGS, drug 10 μM, 72 hours, WST-1, OD450 nm) of the same compound?
The viability at 10 µM was 69.7%.

What about the viability at 10 µM ([11]; read-out: The results of antibiotic drug inhibiting cancer cell lines (cell viability analysis), PC-3, PC-3, repeated experiment) of the same compound?
The viability at 10 µM was 108%.

What about the viability at 10 µM ([11]; read-out: cell viability (survival rate), PC3, drug 10 μM, 72 hours, WST-1, OD450 nm) of the same compound?
The viability at 10 µM was 38.2%.

And the viability at 10 µM (TOV-21G)?
Its viability at 10 µM is 92.2%.

What about the viability at 10 µM ([12]; read-out: The results of antibiotic drug inhibiting cancer cell lines (cell viability analysis), MKN-45, MKN-45, repeated experiment) of the same compound?
Its viability at 10 µM is 142%.

And the viability at 10 µM ([12]; read-out: cell viability (survival rate), MKN-45, drug 10 μM, 72 hours, WST-1, OD450 nm)?
Its viability at 10 µM is 43%.

And the viability at 10 µM ([13]; read-out: The results of antibiotic drug inhibiting cancer cell lines (cell viability analysis), LoVo, repeated experiment)?
The viability at 10 µM was 74.4%.

And the viability at 10 µM ([13]; read-out: cell viability (survival rate), LoVo, drug 10 μM, 72 hours, WST-1, OD450 nm)?
Its viability at 10 µM is 61.4%.

What about the viability at 10 µM [14] of the same compound?
Its viability at 10 µM is 97.4%.

And the viability at 10 µM [15]?
Its viability at 10 µM is 97.1%.

What about the viability at 10 µM ([16]; read-out: The results of antibiotic drug inhibiting cancer cell lines (cell viability analysis), H1650, H1650, repeated experiment) of the same compound?
The viability at 10 µM was 88.5%.

And the viability at 10 µM ([16]; read-out: cell viability (survival rate), H1650, drug 10 μM, 72 hours, WST-1, OD450 nm)?
Its viability at 10 µM is 59.9%.

What about the viability at 10 µM ([17]; read-out: The results of antibiotic drug inhibiting cancer cell lines (cell viability analysis), A375, A375, repeated experiment) of the same compound?
Its viability at 10 µM is 108%.

And the viability at 10 µM ([17]; read-out: cell viability (survival rate), A375, drug 10 μM, 72 hours, WST-1, OD450 nm)?
Its viability at 10 µM is 49.2%.

Reference: patent US10105357B2, “Indication of antibiotic drugs for preparation of cancer inhibition pharmaceutical composition” (LAUNX BIOMEDICAL CO., LTD., priority 2014, dated 2018)
